Test results from patent US11754486B2, “Systems and methods for measuring properties of particles” (Massachusetts Institute of Technology, priority 2017, dated 2023).

What was measured:
L1210 cells [1] = assay: Continuous single-cell monitoring of SNACS (stiffness) of L1210 cells through mitosis in the SMR; assay type: cell-based, mouse
Description: Next, it was determined if both stiffness and buoyant mass of the same cell could be repeatedly measured in order to monitor cell stiffness during the cell cycle. To do so, a previously reported fluidic control strategy was implemented that enables continuous, non-invasive SMR measurements of the same cell. Employing on-chip microscopy capable of acquiring Differential Interference Contrast (DIC) images, stiffness, buoyant mass and morphology of the same cell over multiple generations was simultaneously measured. […] SNACS is shown in dashed lines when measurement error becomes statistically significant. The morphology of the cell was imaged to pinpoint the onset of anaphase as well as to correct for mass elongation effects on the SNACS measurement during anaphase and telophase (FIG. 24A-24C). Dynamic but consistent changes in cell stiffness during mitosis were observed. […] The error in the SNACS measurement increased after cells became full doublets (˜15 min after the onset of anaphase), making subsequent stiffness changes until division not statistically significant (p>0.05). Although the duration and magnitude of the dynamics varied, we observed a similar trend in cell stiffness in other mammalian cell types: BaF3 (FIG. 15D) and S-Hela (FIG. 15E).
(§1) The system was operated by placing a chip on top of a hollow copper plate that is connected to a water bath by tubing to maintain constant temperature on the chip. For all single-cell, long-term monitoring experiments, the temperature of the copper plate was kept at 37° C. The sample was loaded to the SMR from vials pressurized with air containing 5% CO2 to maintain the pH of the culture. A 0.007″ inner diameter fluorinated ethylene propylene (FEP) tubing (IDEX Health & Science) was utilized to push the sample into the chip. The fluid flow was controlled using two electronic pressure regulators (Proportion Air QPV1) and three solenoid valves (SMC-S070), which were controlled by National Instruments control cards and a custom measurement software (Labview 2012). Typically, differential pressure of ˜0.5 psi was applied across the SMR, yielding a flow rate of ˜2 nL/s (calculated based on the frequency modulation signal due a cell transit; typically 200-300 ms) to maintain constant shear and data rate. Under these conditions, the L1210 cell growth rate was similar to that in culture. Beads, hydrogels and drug-response end-point assays were measured at room temperature. All end-point assays were conducted within 30 minutes after samples were loaded. New samples were flushed every several minutes into the input bypass to minimize potential size bias due to particle/cell settling in the tubing and sample vials.
(§2) To measure buoyant mass (antinode) and node deviation (node) from the acquired resonant frequency waveforms, the frequency data was filtered with a third order Savitzky-Golay low-pass filter and the local minima (antinode) that is below a user-defined threshold. Next, local maxima (node) around the peaks were determined. To correct for the possible slope during the particle/cell transition through the cantilever, a baseline was calculated and subtracted from the measured peaks by fitting a first order polynomial at frequency data points prior and posterior of the cell signal. For single-cell volume measurements (FIG. 16A), baselines were fitted with a second order polynomial to account for the baseline fluctuation due to fluid exchange. […]

L1210 cells [2] = assay: SNACS / node deviation end-point assay of chemically perturbed L1210 cells in the suspended microchannel resonator (SMR); assay type: cell-based, mouse; conditions: for SNACS (size-normalized acoustic scattering, proxy of cell stiffness) after treatment: L1210 cells pretreated 20-30 min, LatB 0.02-1 μM, CytoD 1 μM, Bleb 50 μM, Noc 1 μg/ml, vs DMSO 0.1% control, LatB and CytoD p<0.0001
Description: SMR devices were fabricated at CEA-LETI, Grenoble, France. The fluid channel in the detection regime is covered with thin silicon layers. The SMRs were vibrated with a piezo-ceramic plate bonded underneath the chip, providing actuation to resonate the cantilever beam in the second mode. To track the changes in the resonant frequency of the cantilever as a function of time, the cantilever was kept in a feedback loop oscillating at its resonant frequency. The motion of the cantilever was measured using piezoresistors that are implanted at the base of the silicon cantilever. A digital control platform was utilized to oscillate the SMR in direct feedback mode, where the motion signal acquired from the piezoresistor is delayed, amplified, and utilized as the drive signal used to actuate the cantilever. The measurement bandwidth of this control system was set at ˜1,500 Hz, which is wide enough to capture frequency modulation signals created by cell transit events and narrow enough to minimize noise.
as §1
as §2, with “exchange. Both local maxima and minima in the cell signal were subtracted from the linear baseline to obtain the buoyant mass (local minima, antinode) and node deviation (local maxima, node). For single-cell end-point assays (population measurements), frequency peaks were rejected when local minima (two antinodes) differed from each other more than 10% of the average value and/or local maxima (two nodes) differed from each other more than 15% of the average value of local minima, which occur when multiple cells or cell with debris enter the SMR simultaneously. Peaks were rejected if their shape was atypical (e.g., particle/cell stuck in the cantilever).” for “exchange.”

L1210 cells [3] = assay: Imaging of F-actin (LifeAct-RFP) in live L1210 cells before and after chemical treatment; assay type: cell-based, mouse; conditions: live L1210 cells expressing LifeAct-RFP, before and after 30 min treatment; 1 μM LatB, 1 μM CytoD, Noc 1 μg/ml
Description: L1210 FUCCI cells, which express the fluorescence cell cycle marker construct mAG-hGem, were transfected with LifeAct, a F-actin labelling red fluorescent protein construct, using rLVUbi-LifeAct-TagRFP lentiviral vector obtained from ibidi GmbH. Several rounds of transfections were carried out using spinoculation. In short, 1.5×10^5 L1210 FUCCI cells were mixed with 10 μg/ml Polybrene (EMD Millipore) and 1×106 TU of lentivirus, and the mixture was centrifuged at 800 g for 60 minutes at 25° C. After centrifugation, the cells were moved to normal cell culture media, grown overnight, and the spinoculation procedure was repeated. Cells were moved to normal culture media after three rounds of transfections, and 24 hours later, selection was started by adding 10 μg/ml Puromycin (Sigma-Aldrich). After a week of selection, the transfected population was enriched for cells expressing high levels of LifeAct by FACS sorting using BD FACS Aria.
L1210 cells expressing the FUCCI (mAG-hGem) and LifeAct-RFP F-actin probe (rLVUbi-LifeAct-TagRFP) constructs were imaged on poly-lysine coated glass bottom CellView cell culture dishes (Greiner Bio-One). Media, CO2, and temperature conditions during the imaging were the same as within the SMR. Imaging was carried out using a DeltaVision widefield deconvolution microscope with standard FITC and TRICT filters, 100× oil immersion objective and immersion oil with refractive index of 1.522. […]
All images were deconvolved using standard settings in the softWoRX software. To normalize the effect of photo-bleaching, the total LifeAct signal in the entire images (2048×2048 pixels) that contained multiple cells was calculated. […] During the subsequent image analyses, the LifeAct intensity was corrected with the corresponding decay coefficient calculated from the polynomial fit for each frame. To analyze individual cells, the representative cells that went through the nuclear envelope breakdown and/or cytokinesis during the experiment were determined. These cells were cut out of the larger images and analyzed individually (FIG. 28A).

Baf3 cells = assay: Node deviation versus time of Baf3 cells treated with drug (single-cell therapeutic sensitivity); assay type: cell-based; conditions: a few hours of treatment
Description: Acoustic scattering may be used as an early detection marker of single-cell therapeutic sensitivity (FIGS. 11A-11B). […] Viability and proliferation assays are generally not sensitive until 24 hours of drug exposure (data not shown).

With `Cc1ccc2c(c1)C(=O)C1(O)CCN(c3ccccc3)C1=N2` (stereo not drawn) [Blebbistatin] the “stiffness in early mitosis” value (L1210 cells [1]; 25 μM Blebbistatin) was “still displayed a gradual stiffness decrease in early mitosis”, the “stiffness dynamics in anaphase and telophase” value (L1210 cells [1]; 25 μM Blebbistatin, compared with untreated cells) was “disappeared” and the “SNACS (size-normalized acoustic scattering, proxy of cell stiffness) after treatment” value (L1210 cells [2]) was “decreased the SNACS”.
For `C=C1[C@@H](C)[C@H]2[C@H](Cc3ccccc3)NC(=O)[C@]23[C@H](OC(C)=O)/C=C/[C@@](C)(O)C(=O)[C@@H](C)C/C=C/[C@H]3[C@@H]1O` [Cytochalsin D], the “actin cortex morphology (LifeAct F-actin images)” value (shortened to “actin cortex morphology”) (L1210 cells [3]) was “polarized cortex” and the “SNACS (size-normalized acoustic scattering, proxy of cell stiffness) after treatment” value (L1210 cells [2]) was “decreased the SNACS”.
For `CCN(c1nc(N)c(C(=O)NC(=N)N)nc1Cl)C(C)C` [EIPA, ethylisopropylamiloride], the “stiffness increase in early anaphase” value (L1210 cells [1]; 10 μM EIPA) was “not present” and the “ΔSNACS, SNACS change in prophase and metaphase (early mitosis)” value (L1210 cells [1]; 10 μM EIPA (n=5), 5 μM STLC (n=8), mean±standard deviation, control −0.22±0.01) was −0.08±0.02.
For `Cc1ccc(NC(=O)c2ccc(CN3CCN(C)CC3)cc2)cc1Nc1nccc(-c2cccnc2)n1` [Imatinib], the “node deviation (ND) of treated cells versus DMSO” value (Baf3 cells) was “distinct ND”.
`C/C1=C/C(=O)O[C@@H]2C[C@@H](CC[C@H](C)/C=C\CC1)O[C@@](O)([C@@H]1CSC(=O)N1)C2` [Latrunculin B] was tested, and the “actin cortex morphology” value (L1210 cells [3]) was “punctured cortex” and the “SNACS (size-normalized acoustic scattering, proxy of cell stiffness) after treatment” value (L1210 cells [2]) was “decreased the SNACS”.
`COC(=O)Nc1nc2ccc(C(=O)c3cccs3)cc2[nH]1` [Nocodazole] was tested, and the “actin cortex morphology” value (L1210 cells [3]) was “affected the actin cortex morphology” and the “SNACS (size-normalized acoustic scattering, proxy of cell stiffness) after treatment” value (L1210 cells [2]) was “reduced SNACS”.
In the case of `N[C@@H](CSC(c1ccccc1)(c1ccccc1)c1ccccc1)C(=O)O` [STLC, S-trityl-1-cysteine], the “stiffness (SNACS) during metaphase arrest” value (L1210 cells [1]; 5 μM STLC) is reported as “stiffness remained low for several hours”.
paraformaldehyde was tested, and the “SNACS after crosslinking of cellular structures” value (L1210 cells [2]) was “opposite change in SNACS” and the “node deviation after treatment” value (L1210 cells [2]) was “increased the node deviation”.
